The values below come from patent US20250162973A1, “METHODS OF SYNTHESIS AND USES OF AGRIMOL COMPOUNDS” (Versitech Limited, priority 2022, published 2025).

Assay [1] deals with T1, HSP60 (Homo sapiens, UniProt P10809). The assay can be described thus: Tryptophan fluorescence quenching assay. To be noted: Stern-Volmer analysis; read-out: Kd of AGB binding to HSP60. As for the experimental part: (§1) FIG. 5A is a volcano plot (ΔTm, p-value) for TPP data obtained from NCI-H460 cells with 4 μM AGB treatment for 1 h. The criteria were set as ΔTm>2° C. and p<0.05. FIG. 5B is a graph showing results of the tryptophan fluorescence quenching assay for the direct interaction between AGB and three target proteins. Upper, tryptophan fluorescence titration of recombinant proteins with AGB. […] For CS, its fluorescence decrease was saturated when AGB concentrations increased to about 32 μM. Lower, the normalized tryptophan intensities at an emission of 320 nm were plotted as a function of total added concentration of AGB. The dissociation constants (Kd) between AGB and three proteins were then calculated by fitting this plot with Stern-Volmer Equation. […] The fluorescence intensity was presented as percentage relative to control groups. […]
T1 sequence (P10809 27-573): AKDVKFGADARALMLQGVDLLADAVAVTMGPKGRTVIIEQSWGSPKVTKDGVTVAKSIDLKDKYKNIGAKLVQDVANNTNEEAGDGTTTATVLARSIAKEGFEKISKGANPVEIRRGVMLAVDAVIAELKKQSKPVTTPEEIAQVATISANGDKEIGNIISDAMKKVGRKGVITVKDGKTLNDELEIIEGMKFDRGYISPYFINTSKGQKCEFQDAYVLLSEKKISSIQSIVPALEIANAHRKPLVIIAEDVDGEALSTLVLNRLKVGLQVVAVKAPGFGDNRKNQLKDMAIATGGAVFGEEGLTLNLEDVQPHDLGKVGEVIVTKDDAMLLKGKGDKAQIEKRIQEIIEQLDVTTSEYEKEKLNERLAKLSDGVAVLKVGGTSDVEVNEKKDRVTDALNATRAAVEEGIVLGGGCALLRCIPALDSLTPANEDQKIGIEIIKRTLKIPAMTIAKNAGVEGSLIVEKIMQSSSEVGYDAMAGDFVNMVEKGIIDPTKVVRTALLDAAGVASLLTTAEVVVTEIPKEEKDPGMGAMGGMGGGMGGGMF
(§2) To further examine whether AGB interacts directly with the above three identified proteins, the intrinsic tryptophan fluorescence properties of these proteins were examined in the presence of AGB at different concentrations. Upon binding with AGB, proteins experience a change of the tryptophan environment, which can be visualized by fluorescence spectroscopy. As shown in FIG. 5B the tryptophan fluorescence of three proteins were all quenched by AGB in a concentration-dependent manner.

In assay [2] the target is T2, TALDO1 (Homo sapiens, UniProt P37837).
T2 construct: endogenous in cells
T2 sequence (P37837 1-337): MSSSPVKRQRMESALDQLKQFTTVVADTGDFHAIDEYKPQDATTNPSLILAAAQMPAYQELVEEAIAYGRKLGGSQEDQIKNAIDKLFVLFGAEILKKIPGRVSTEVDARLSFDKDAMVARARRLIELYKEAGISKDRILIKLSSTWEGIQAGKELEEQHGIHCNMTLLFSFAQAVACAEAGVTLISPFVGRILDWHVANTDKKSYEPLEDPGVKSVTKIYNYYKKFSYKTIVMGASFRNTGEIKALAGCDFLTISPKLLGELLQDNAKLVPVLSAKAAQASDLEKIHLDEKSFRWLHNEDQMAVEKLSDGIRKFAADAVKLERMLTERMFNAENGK
The assay can be described thus: Tryptophan fluorescence quenching assay. To be noted: Stern-Volmer analysis; read-out: Kd of AGB binding to TALDO1. As for the experimental part:
as §1, §2

In assay [3] the target is T3, CS (Homo sapiens, UniProt O75390).
T3 sequence (O75390 28-466): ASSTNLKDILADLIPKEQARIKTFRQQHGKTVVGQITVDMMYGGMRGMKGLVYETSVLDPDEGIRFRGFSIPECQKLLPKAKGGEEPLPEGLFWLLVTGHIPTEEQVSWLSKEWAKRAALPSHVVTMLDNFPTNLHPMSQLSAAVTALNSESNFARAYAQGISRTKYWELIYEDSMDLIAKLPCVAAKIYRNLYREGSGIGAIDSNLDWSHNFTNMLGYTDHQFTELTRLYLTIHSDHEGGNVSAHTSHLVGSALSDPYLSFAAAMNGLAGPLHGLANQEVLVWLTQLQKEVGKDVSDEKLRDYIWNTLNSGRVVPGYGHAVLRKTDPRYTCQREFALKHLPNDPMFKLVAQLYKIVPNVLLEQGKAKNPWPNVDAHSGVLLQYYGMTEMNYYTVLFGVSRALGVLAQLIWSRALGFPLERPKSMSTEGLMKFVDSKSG
The assay can be described thus: Tryptophan fluorescence quenching assay. The assay is classed as binding. As for the experimental part: as §1, §2

In assay [4] the target is T1, HSP60. The assay can be described thus: MDH refolding assay (chaperone function). It is filed as biochemical. The following applies: pre-incubation of Hsp60 with AGB. From the text:
The function of HSP60 is mainly for its chaperone activity. HSP60 cooperates with co-chaperonin HSP10 to perform the misfolded proteins refolding and reactivate. Mitochondrial malate dehydrogenase (MDH), one of HSP60 substrates, was examined for the inhibition of chaperone function by AGB.

The test system of assay [5] is CCD-19Lu (human lung fibroblast normal cell). The assay can be described thus: MTT cell viability assay, normal cell. It is filed as cell-based. The following applies: 48-h treatment. As for the experimental part: SUNE1 (nasopharyngeal carcinoma), AGS (gastric adenocarcinoma), HeLa (cervix adenocarcinoma), HepG2 (hepatocellular carcinoma), U-87 MG (human glioblastoma cell), U2OS (osteosarcoma), MCF-7 (breast adenocarcinoma), MDA-MB-231 (breast adenocarcinoma), HCT116 (colorectal carcinoma), SW480 (colorectal adenocarcinoma), NCI-H460 (large cell lung carcinoma), NCI-H1650 (adenocarcinoma lung carcinoma), HCC827 (adenocarcinoma lung carcinoma), A549 (lung carcinoma), and CCD-19Lu (human lung fibroblast normal cell) were all obtained from American Type Culture Collection (ATCC, Manassas, VA, USA). Minimum Essential Media (MEM, Gibco®, ThermoFisher Scientific), Dulbecco's Modified Eagle Medium (DMEM, Gibco®, ThermoFisher Scientific), and RPMI-1640 Medium (Gibco®, ThermoFisher Scientific) supplemented with 10% Fetal Bovine Serum (Gibco®, ThermoFisher Scientific), and 100 U/mL penicillin-streptomycin (Gibco™, ThermoFisher Scientific) were used for cell culture. Cells were placed into an incubator with 5% CO2 that temperature was set at 37° C. […]
The cell viability assay was performed by a typical MTT assay. […] The formed formazan was then dissolved with SDS solution (10% SDS in 10 mM HCl) and followed the determination of absorbance at 590 nm by a microplate reader. The change in cell viability was then calculated for each drug concentration, then normalized to control. […]

In general, Kd refers to the free concentration of one partner at which half of the binding sites on the other are occupied at equilibrium, for simple one-to-one binding. For orientation: IC50 means the midpoint of a concentration-inhibition curve. Read a low IC50 as greater potency. Consider `CCCC(=O)c1c(O)c(Cc2c(O)c(Cc3c(O)c(C)c(OC)c(C(=O)CCC)c3O)c(O)c(C(=O)[C@@H](C)CC)c2O)c(O)c(C)c1OC` [AGB, Agrimol B], for which the Kd turned out to be 27 µM in assay [1]; 22.7 µM in assay [2]; 4.9 µM in assay [3] (Stern-Volmer analysis, read-out: Kd of AGB binding to CS). Further, the “AGB concentration at which the CS fluorescence decrease was saturated” value in assay [3] (tryptophan fluorescence titration) is “about 32 μM”. Further, in assay [4], the MDH refolding activities result is reported as “concentration-dependent inhibition”. The compound also yielded a concentration for half-maximal inhibition (IC50) in assay [5] of 31.1 µM.
